Key:
Plasmodium falciparum = experiment: Antimalarial activity against chloroquine and mefloquine-resistant Plasmodium falciparum Dd2 after 48 hrs by SYBR Green I assay; format: functional
[1] = Cytotoxicity against human HepG2A16 cells after 24 hrs by MTT assay; format: cell-based; settings: read-out: LD50
[2] = Plasmodium falciparum, Dd2, 48 h, read-out: IC50

CC(=O)N(O)CCCP(=O)(O)O
IC50 (Plasmodium falciparum; [2]): 0.893 µM

CC(C)(C)C(=O)OCOP(=O)(OCOC(=O)C(C)(C)C)C1CCCN(O)C(=O)C1 (centres undefined)
CC50 at 24 h [1]: 20.1 µM | IC50 (Plasmodium falciparum; [2]): 2.24 µM

CC(=O)N(O)CCCP(=O)(OCOC(=O)C(C)(C)C)OCOC(=O)C(C)(C)C
IC50 (Plasmodium falciparum; [2]): 0.272 µM

CC(C)(C)C(=O)OCOP(=O)(OCOC(=O)C(C)(C)C)C1CCN(O)C(=O)C1 (centres undefined)
CC50 at 24 h [1]: 25.6 µM | IC50 (Plasmodium falciparum; [2]): 0.0274 µM

CCOP(=O)(OCC)C1CCN(OCc2ccccc2)C(=O)C1 (centres undefined)
CC50 at 24 h [1]: 25.6 µM | IC50 (Plasmodium falciparum): Not Active

O[C@@H](c1cc(C(F)(F)F)nc2c(C(F)(F)F)cccc12)[C@H]1CCCCN1 [(S,R)-MEFLOQUINE]
IC50 (Plasmodium falciparum; [2]): 0.092 µM
